From patent US6372748B1, “Fungicide mixtures based on pyridine amides and fenarimol” (BASF Aktiengesellschaft, priority 1997, dated 2002)

System: Puccinia recondita
Assay: Curative activity against Puccinia recondita on wheat (wheat leaf rust)
Format: in vivo, Puccinia recondita on wheat seedlings of the variety Kanzler
Details: sprayed 1 day after inoculation, rated after 7 days
Experimental: The active ingredients, separately or together, are formulated as a 10% emulsion in a mixture of 63% by weight of cyclohexanone and 27% by weight of emulsifier, and diluted with water to the desired concentration.
Evaluation is carried out by determining the infected leaf areas in percent. These percentages are converted into efficacies. The efficacy (w) is calculated as follows using Abbot's formula: […]
α corresponds to the fungal infection of the treated plants in % and β corresponds to the fungal infection of the untreated (control) plants in % An efficacy of 0 means that the infection level of the treated plants corresponds to that of the untreated control plants; an efficacy of 100 means that the treated plants were not infected.
The expected efficacies of the mixtures of the active ingredients were determined using Colby's formula [R. S. Colby, Weeds 15, 20-22 (1967)] and compared with the observed efficacies.
Colby's formula: E=x+y−x·y/100
E expected efficacy, expressed in % of the untreated control, when using the mixture of the active ingredients A and B at the concentrations a and b x efficacy, expressed in % of the untreated control, when using active ingredient A at a concentration of a y efficacy, expressed in % of the untreated control, when using active ingredient B at a concentration of b Leaves of potted wheat seedlings of the variety “Kanzler” were dusted with spores of leaf rust (Puccinia recondite). Thereafter, the pots were kept for 24 hours in a chamber of high atmospheric humidity (90 to 95%) and 20 to 22° C. During this time, the spores germinated and the germinal tubes penetrated into the leaf tissue. The next day, the infected plants were sprayed to runoff point with an aqeuous formulation of active ingredient prepared from a stock solution consisting of 10% of active ingredient, 63% of cyclohexanone and 27% of emulsifier. After the spray coating had dried on, the test plants were cultivated in a greenhouse at from 20 to 22° C. and from 65 to 70% of relative atmospheric humidity for 7 days. Thereafter, the extent of rust fungus development on the leaves was determined.

[1] = 50 ppm active ingredient in the spray liquor
[2] = 100 ppm active ingredient in the spray liquor

| Compound | Efficacy in % of the untreated control (10 ppm active ingredient in the spray liquor) | Efficacy in % of the untreated control (20 ppm active ingredient in the spray liquor) | Efficacy in % of the untreated control [1] | Efficacy in % of the untreated control [2] | Efficacy in % of the untreated control (200 ppm active ingredient in the spray liquor) |
| --- | --- | --- | --- | --- | --- |
| OC(c1ccc(Cl)cc1)(c1cncnc1)c1ccccc1Cl (racemic) [Compound II, (±)-(2-Chlorophenyl)(4-chlorophenyl)(pyrimidin-5-yl)methanol, reference compound] | 10% | 20% | – | – | – |
| O=C(Nc1ccccc1-c1ccc(F)cc1)c1cccnc1Cl [Compound I.1] | – | – | 0% | 0% | 0% |
| O=C(Nc1ccccc1-c1ccc(Cl)cc1)c1cccnc1Cl [Compound I.2] | – | – | 0% | 30% | – |
